{
  "source": "patent US9580465B2",
  "about": "“Tissue protective peptides and peptide analogs for preventing and treating diseases and disorders associated with tissue damage” (ARAIM PHARMACEUTICALS, INC., priority 2008, dated 2017)",
  "key": {"histamine": {"test_system": "histamine", "test": "Histamine induced wheal formation, persistence after single dose", "format": "in vivo, rats", "settings": "FIG. 16", "experimental": "The ability of Peptide ID to reduce plasma extravasation (wheal) induced by intradermal histamine administration was evaluated in rats. Animals were pre-administered Evans Blue dye (which binds tightly to albumin) to provide a visual marker of vascular leak. To determine the persistence of peptide IG activity, at various time periods after Peptide ID administration (30 μg/kg, administered intravenously), an intradermal dose of 0.12 μg histamine was administered, and the extent of dye leak quantitated by planimetry performed on digital photographs obtained 15 minutes following histamine placement, a time at which wheal surface area is greatest. Each animal was tested at only a single time point to avoid influence of histamine administration on subsequent responses."}, "[1]": {"test_system": "9 L/LacZ gliosarcoma cells", "test": "Cortical tumor implant", "format": "in vivo, CD fisher rats", "settings": "30 μg/kg i.p. daily for 25 days following implantation; FIG. 12", "experimental": "A cortical tumor implant study was conducted in accordance with the protocol of Lampson et al. Cancer Res. 53:176-82:1993 to determine the effect of Peptide ID on the growth of the tumor.\nIn accordance with the protocol, male CD fisher rats were anesthetized and their right scalp was shaved and washed with disinfectant. A small incision was then made in the scalp overlying the right temporal cerebral cortex. A 1 mm hole was drilled through the calvarium, without puncturing the dura matter. Under aseptic conditions, living 50,000 9 L/LacZ gliosarcoma cells in 5 μl was slowly injected through a 22 gauge needle attached to a precision Hamilton syringe. Bone wax was then applied to the trephanation site, the skin was sutured and a prophylactic dose of antibiotic was administered i.p. Control rats were provided with saline injections i.p. daily. The rats treated with Peptide ID received daily injections of 30 μg/kg i.p. daily for a period of 25 days. At 25 days following implantation, the animal was anesthetized and the brain perfused-fixed with 2% paraformaldehyde. The brain was then removed and cut on a brain matrix device into coronal sections 1 mm thick and the extent of tumor mass was determined by planimetric methodology."}, "UT-7epo cells": {"test_system": "UT-7epo cells", "test": "UT-7epo proliferation/survival assay of erythropoietic potency", "format": "cell-based, human", "settings": "5 pM to 50 nM, 48 h incubation, WST-I reagent; FIG. 1", "experimental": "The cells were maintained in 75 cm^2 flasks with 20 ml of medium/flask in a humidified incubator with 5% CO2 at 37° C. for 48 h. On day two of the assay, i.e., at 48 h, the cells were transferred from the flask into a 50-ml conical tube and centrifuged at 1,000 rpm for 5 minutes at room temperature. The supernatant was discarded and the cells were washed two times with 10 ml of starvation media (3% donor calf serum, 4 mM L-glutamine). The cells were then re-suspended in starvation media, using up and down pipette action to obtain a single cell suspension. The re-suspended cells were diluted with starvation media to obtain a density of 4×10^5 cells/ml, and plated at a total culture volume of 10 ml per 25 cm^2 flask. Following a 4 h incubation, the cells were again transferred to a 50-ml conical tube.\nA series of 10 fold dilutions in RPMI 1640 medium containing 3% serum was used to generate concentrations of test compounds from 5 pM to 50 nM. Following a further for 48 h incubation, a solution of […] WST-I Cell Proliferation Reagent (Roche) was added to each well, and incubated for 1 hour at 37° C. in CO2. After mixing for 1 minute, the plate was read in a plate reader (absorption at 450 nm, subtracted from background absorption at 650 nm)."}},
  "note": "Entries after “also recorded” stand apart in the source; their conditions may differ. Square brackets hold non-standard residues; d marks the D form. pGlu = O=C1CC[C@@H](C(=O)O)N1",
  "data": [
    {"sequence": "UEQLERALNSS ([pGlu]EQLERALNSS-OH; also: acetate/ammonium mixed salt) [Peptide ID, first glutamine replaced with pyroglutamate]", "values": [
      {"measurement": "persistence of the suppressive effect on wheal formation", "setting": "histamine; following a single dose of 30 μg/kg intravenously", "value": "up to 24 hours"},
      {"measurement": "wheal formation (plasma extravasation)", "setting": "histamine; single dose 30 μg/kg intravenously before 0.12 μg intradermal histamine", "value": "suppress wheal formation"},
      {"measurement": "relative volume of cortical tumor", "setting": "[1]", "value": "no growth in the tumor volume; also recorded: no increase in the relative volume of the tumor"},
      {"measurement": "proliferation of UT-7 EPO cells (erythropoietic activity)", "setting": "UT-7epo cells", "value": "no erythropoeitic activity; also recorded: did not result in proliferation of the cells"}
    ]}
  ]
}
